Like-named read-outs stand apart in the source and are kept apart here. Ends that are not written are not given here.
Tests used:
[1] = test system: Proteus mirabilis ATCC 21100; details: CFU assay, 10 mM NaP, pH 6.0, 0.25% glucose
[2] = test system: S. aureus ATCC 6538; details: CFU assay, 10 mM NaP, pH 5.5, 0.25% glucose
[3] = test system: Staphylococcus aureus ATCC 43300; details: MRSA; CLSI, Mueller–Hinton broth, 5 × 10^5 CFU/mL, 18 h 37 °C, by CO-ADD
[4] = test system: Enterococcus faecium DSM 2146; details: CFU assay, 10 mM NaP, pH 5.5, 0.25% glucose
[5] = test system: Acinetobacter baumannii ATCC 19606; details: CFU assay, 10 mM NaP, pH 6.0, 0.25% glucose
[6] = test system: Burkholderia cepacia ATCC 25416; details: CFU assay, 10 mM NaP, pH 5.5, 0.25% glucose
[7] = test system: E. coli ATCC 11775; assay: CFU assay of antimicrobial activity; format: cell-based, Escherichia coli; details: 10 mM NaP, pH 5.5, 1% TSB
Experimental: (§1) All purified peptides and recombinant proteins were applied using a colony forming unit (CFU) assay in different media. Bacteria were grown to early log-phase in BHI, washed either with 10 mM Na-P, pH 7.4/1% TSB or pH 5.5/1% TSB, or pH 5.5 without TSB or BHI, and adjusted to a concentration of 10^4–10^5 colony forming units (CFU)/ml. For cell number control, 100 µl aliquots were diluted 1:10, 1:100 and 1:1000 and plated in duplicates on BHI agar plates. To 100 µl aliquots of the bacteria, suspended in the respective medium (10 mM Na-P buffer pH 7,0–7,4/ 1% (w/v) TSB; 10 mM Na-P buffer pH 5,5/ 1% (w/v) TSB; 10 mM Na-P buffer pH 7,0–7,4/ 1% (w/v) TSB pH 7,0–7,4/ 0,25% (w/v) glucose; 10 mM Na-P buffer pH 5,5/ 0,25% (w/v) glucose, respectively), 10 µl of a solution of the peptide or protein (two-fold dilutions, from 300 µg/ml or 150 µg/ml down to 19 ng/ml), dissolved in 0.01% (v/v) acetic acid, were added.
(§2) Then bacteria were incubated for 2 h at ambient temperature, if not otherwise stated. 10 µl of 0.01% (v/v) acetic acid, added to 100 µl aliquots of the bacteria in the respective medium, served as negative control. From each test, 1:10 and 1:100 dilutions were generated and plated as duplicates of 100 µl aliquots on BHI agar plates. After 16 h incubation at 37 °C, CFU were counted using a colony counter (Bio Kobe, Japan) and expressed as mean of the duplicate estimation to achieve a complete dose-response curve. All experiments were performed at serial dilutions in a concentration range of 100 µg/mL −25 ng/mL for recombinant HRNR fragments and 300 or 150 µg/mL–19 ng/mL for synthetic peptides.

[8] = test system: E. coli ATCC 25922; assay: CO-ADD MIC, broth microdilution (CLSI); format: cell-based, Escherichia coli; details: Mueller–Hinton broth, 5 × 10^5 CFU/mL, 18 h 37 °C, by CO-ADD
Description: (§3) They were defined as the lowest peptide
(§4) Further details of the screening

[9] = test system: P. aeruginosa ATCC 10145; details: CFU assay
[10] = test system: Pseudomonas aeruginosa ATCC 27853; assay: CO-ADD MIC, broth microdilution (CLSI); format: cell-based; details: Mueller–Hinton broth, 5 × 10^5 CFU/mL, 18 h 37 °C, by CO-ADD
Description: as §3, §4

[11] = test system: Acinetobacter baumannii ATCC 19606; assay: CO-ADD MIC, broth microdilution (CLSI); format: cell-based; details: Mueller–Hinton broth, 5 × 10^5 CFU/mL, 18 h 37 °C, by CO-ADD
Description: as §3, §4

[12] = test system: C. albicans ATCC 24433; assay: CFU assay of antimicrobial activity; format: cell-based, Candida albicans; details: 10 mM NaP
Experimental: Bacteria were cultivated in either brain heart infusion medium (BHI), lysogeny broth (LB) or tryptic soy broth (TSB)[88]. If not otherwise stated, bacteria were incubated under shaking conditions (37 °C at 170 rpm) or as indicated on the ATCC- or DSM-data sheets. Candida albicans was cultured for 3 days on Yeast Extract-Peptone Dextrose (YPD) agar at 30 °C and yeast suspensions at appropriate density were treated with CIDAMPs as indicated.
as §1, §2

[13] = test system: Streptococcus pneumoniae ATCC 33400; assay: CFU assay of antimicrobial activity; format: cell-based; details: 10 mM NaP, pH 6.5, 0.25% glucose
Experimental: as §1, with “[…];” for “10 mM Na-P buffer pH 5,5/ 1% (w/v) TSB;”
as §2

[14] = test system: Streptococcus pyogenes ATCC 12344; assay: CFU assay of antimicrobial activity; format: cell-based; details: 10 mM NaP, pH 6.0, 0.25% glucose
Experimental: as §1, with “[…];” for “10 mM Na-P buffer pH 5,5/ 1% (w/v) TSB;”
as §2

[15] = test system: Klebsiella pneumonia ATCC 700603; details: MDR strain; CLSI, Mueller–Hinton broth, 5 × 10^5 CFU/mL, 18 h 37 °C, by CO-ADD
[16] = test system: Cryptococcus neoformans ATCC 208821; assay: CO-ADD MIC, antifungal assay (CLSI); format: cell-based; details: Yeast Nitrogen Base broth, 24 h 35 °C, by CO-ADD
Experimental: (§5) Fungi strains were cultured for 3 days on Yeast Extract-Peptone Dextrose (YPD) agar at 30 °C. A yeast suspension of 1 × 10^6 to 5 × 10^6 cells/mL (as determined by OD530) was prepared from five colonies. These stock suspensions were diluted with Yeast Nitrogen Base (YNB) broth to a final concentration of 2.5 × 10^3 CFU/mL. […] Plates were covered and incubated at 35 °C for 24 h without shaking.

[17] = test system: Candida albicans ATCC 90028; assay: CO-ADD MIC, antifungal assay (CLSI); format: cell-based; details: Yeast Nitrogen Base broth, 24 h 35 °C, by CO-ADD
Experimental: as §5

GRHGSGLGHSSSHGQHGSGSGR [HR 1-18] was tested, and the LD90 [1] was over 300 µg/mL, the LD90 [2] was over 300 µg/mL and the “Minimal inhibitory concentration (MIC)” value [3] was over 32 µg/mL. It also gave an LD90 [4] of 150 µg/mL, an LD90 [5] of 1.18 µg/mL and an LD90 [6] of over 300 µg/mL. For the same sequence, the LD90 [7] was over 300 µg/mL, the “Minimal inhibitory concentration (MIC)” value [8] was over 32 µg/mL and the LD90 ([9]; 10 mM NaP, pH 5.5, 0.25% glucose) was 0.038 µg/mL. For the same sequence, the LD90 ([9]; 10 mM NaP, pH 5.5, 1% TSB) was 0.15 µg/mL, the LD90 ([9]; 10 mM NaP/0.25% glucose/pH 5.5, 1% TSB) was 1.18 µg/mL and the LD90 ([9]; 10 mM NaP/0.25% glucose/pH 5.5, 3% TSB) was 37.5 µg/mL. The LD90 ([9]; 10 mM NaP/0.25% glucose/pH 5.5, 10% TSB) was over 300 µg/mL, the “Minimal inhibitory concentration (MIC)” value [10] was over 32 µg/mL and the “Minimal inhibitory concentration (MIC)” value [11] was over 32 µg/mL. It also gave an LD90 ([12]; pH 5.5, 0.25% glucose) of 18.8 µg/mL, an LD90 ([12]; pH 5.5, 1% TSB) of 150 µg/mL and an LD90 [13] of over 300 µg/mL. The LD90 [14] was over 300 µg/mL, the “Minimal inhibitory concentration (MIC)” value [15] was over 32 µg/mL and the “Minimal inhibitory concentration (MIC)” value [16] was over 32 µg/mL. The “Minimal inhibitory concentration (MIC)” value [17] was over 32 µg/mL.

Source: paper PMC6399351, “Cationic Intrinsically Disordered Antimicrobial Peptides (CIDAMPs) Represent a New Paradigm of Innate Defense with a Potential for Novel Anti-Infectives” (Scientific Reports, 2019)
